How the values were obtained:
[1] = system: human glioma cell line U343mga; experiment: Cell uptake of boronated compounds (boron content by DCP-AES); type: cell-based; conditions: U343mga cells, 6 hours incubation, 5×10^−4 M boron; for Boron content expressed as a function of total cell protein, Trial 1: trial 1: 7.2 μg boron/ml culture medium; for Boron content expressed as a function of total cell protein, Trial 2: trial 2: 7.7 μg boron/ml culture medium
Protocol: (§1) Four different tumour cell lines of human origin, including human glioma cell line U343mga, human hepatocarcinoma cell line Hep3B, human breast adenocarcinoma cell line MCF7 and human sarcoma cell line 4SS, were used for in vitro testing of the purified material from Example 3 (hereinafter designated as BF). Cells were plated on non-coated tissue culture plastics and cultured at 37° C. in incubators with humidified air, equilibrated with 5% CO2. They were grown in recommended tissue culture medium, supplemented with 10% FCS and PEST (penicillin 100 IU/ml and streptomycin […]). For passage of cells, cells were trypsinized with trypsin-EDTA (0.25% trypsin, 0.02% EDTA in phosphate buffered saline (PBS) without calcium and magnesium).
U343 mga cells were plated on Petri dishes at 75% cell density and incubated with one of boric acid (BA), vitamin B12 conjugated boron (BB), 1-4-dihydroxyboryl-phenylalanine (BPA) or BF dissolved in tissue culture medium for 6 hours. All four boronated compounds were added to and dissolved in the tissue culture medium at equimolar concentrations with respect to the boron content (5×10^−4 M boron). Incubations were stopped by removing the boron-containing tissue culture medium and by adding cold PBS buffer for washing excess of medium from cells. Cells were immediately harvested by scraping them off the plastic dish using a rubber policeman. They were collected in cold PBS and pelleted by centrifugation.
(§2) Cell samples were taken for total protein analysis according to a standard Bradford procedure. Cell pellets were processed for boron analysis by Direct Current Plasma-Atomic Emission Spectroscopy (DCP-AES). Samples (50-130 mg) were digested at 60° C. with sulfuric acid/nitric acid (1/1). Triton X-100 and water added to give a concentrations of 50 mg tissue/ml, 15% total acid v/v and 5% Triton X-100 v/v. The boron concentrations were based on a known reference sample.

U343mga cells = experiment: Intracellular retention of boron after withdrawal of boron containing medium; type: cell-based, human; conditions: for Boron content in U343mga cells, 0 hour after withdrawal of boron containing medium / Boron content in U343mga cells, 2 hours after withdrawal of boron containing medium / Boron content in U343mga cells, 7 hours after withdrawal of boron containing medium: 18 hours incubation, 5×10^−4 M boron
Protocol: as §1, §2
U343 mga cells, were plated on Petri dishes at 75% cell density and incubated with one of 1-4-dihydroxyboryl-phenylalanine (BPA) or BF in tissue culture medium for 18 hours. Both boronated compounds were added to the tissue culture medium at equimolar concentrations with respect to the boron content (5×10^−4 M boron). Incubations were stopped by replacing the boron-containing medium with culture medium without boron. Cell samples were harvested at time points 0, 2 and 7 hours where the 0 time point represents immediate after 18 hour incubation of boronated compound.
Cells were washed with cold PBS and harvested by scraping them off the plastic dish using a rubber policeman, collected in cold PBS and pelleted by centrifugation. Cell pellets were analysed for total protein and boron content as described.

[2] = system: tumour cell lines of human origin; experiment: In vitro studies in tumour cell lines: signs of toxicity; type: cell-based; conditions: Examples 4-6
Protocol: as §1

U343mga = experiment: BF uptake by different tumor cells: U343mga; type: cell-based, human; conditions: 6 hours incubation
Protocol: as §1
as §2, with “sample. […]” for “sample.”

[3] = system: human sarcoma cell line 4SS; experiment: BF uptake by different tumor cells: 4SS; type: cell-based; conditions: 6 hours incubation
Protocol: as §1
as §2, with “sample. […]” for “sample.”

[4] = system: human hepatocarcinoma cell line Hep3B; experiment: BF uptake by different tumor cells: Hep3B; type: cell-based; conditions: 6 hours incubation
Protocol: as §1
as §2, with “sample. […]” for “sample.”

[5] = system: human breast adenocarcinoma cell line MCF7; experiment: BF uptake by different tumor cells: MCF7; type: cell-based; conditions: 6 hours incubation
Protocol: as §1
as §2, with “sample. […]” for “sample.”

Compound | Boron content expressed as a function of total cell protein, Trial 1 [1] [μg boron/g cell protein] | Boron content expressed as a function of total cell protein, Trial 2 [1] [μg boron/g cell protein] | Boron content in U343mga cells, 0 hour after withdrawal of boron containing medium (U343mga cells) [μg boron/g cell pellet] | Boron content in U343mga cells, 2 hours after withdrawal of boron containing medium (U343mga cells) [μg boron/g cell pellet] | Boron content in U343mga cells, 7 hours after withdrawal of boron containing medium (U343mga cells) [μg boron/g cell pellet] | Signs of toxicity in in vitro studies [2] | Boron content expressed as a function of total cell protein, Low cell density (U343mga; 40-50% (low) cell density) [μg boron/g cell protein] | Boron content expressed as a function of total cell protein, High cell density (U343mga; 90-100% (high) cell density) [μg boron/g cell protein] | Boron content expressed as a function of total cell protein, Low cell density ([3]; 40-50% (low) cell density) [μg boron/g cell protein] | Boron content expressed as a function of total cell protein, High cell density ([3]; 90-100% (high) cell density) [μg boron/g cell protein] | Boron content expressed as a function of total cell protein, Low cell density ([4]; 40-50% (low) cell density) [μg boron/g cell protein] | Boron content expressed as a function of total cell protein, High cell density ([4]; 90-100% (high) cell density) [μg boron/g cell protein] | Share of the total uptake retained in tumour cells (U343mga cells; 7 hours after total depletion of BF in the culture medium) [%] | Boron content expressed as a function of total cell protein, Low cell density ([5]; MCF7, 40-50% (low) cell density) [μg boron/g cell protein] | Boron content expressed as a function of total cell protein, High cell density ([5]; MCF7, 90-100% (high) cell density) [μg boron/g cell protein]
OB(O)O [BA, boric acid] | 8 |  |  |  |  |  |  |  |  |  |  |  |  |  | 
N[C@@H](Cc1ccc(B(O)O)cc1)C(=O)O [BPA, 1-4-dihydroxyboryl-phenylalanine, reference compound] | 65 | 38 | 0.075 | 0 | 0 |  |  |  |  |  |  |  |  |  | 
N^2-(4-{[(2-amino-4-oxo-3,4-dihydropteridin-6-yl)methyl]amino}benzoyl)-N-{3-[(1R,9S)-2,3,4,5,6,7,8,10,11,12-decaborabicyclo[7.2.1]dodec-1-yl]propyl}-α-glutamine and N^2-(4-{[(2-amino-4-oxo-3,4-dihydropteridin-6-yl)methyl]amino}benzoyl)-N-[3-(2,3,4,5,6,7,8,10,11,12-decaborabicyclo[7.2.1]dodec-1-yl)propyl]-L-glutamine [BF] | 560 | 440 | 0.79 | 0.59 | 0.3 | without any signs of toxicity | 108 | 172 | 263 | 367 | 171 | 219 | 40 | 108 | 169
